Our source for the IC50 values is patent US20070027145A1, “Quinazoline derivatives as inhibitors of vegf receptor tyrosine kinases” (priority 2003, published 2007).

The test system of experiment [1] is VEGF-stimulated proliferation of human umbilical vein endothelial cells (HUVEC). Kind of experiment: In vitro HUVEC proliferation assay (b), VEGF-stimulated. The class given is cell-based. The following applies: VEGF 3 ng/ml, read-out: IC50 in the HUVEC assay (b) with respect to VEGF. As for the experimental part: (§1) This assay determines the ability of a test compound to inhibit the growth factor-stimulated proliferation of human umbilical vein endothelial cells (HUVEC).
(§2) HUVEC cells were isolated in MCDB 131 (Gibco BRL)+7.5% v/v fetal calf serum (PCS) and were plated out (at passage 2 to 8), in MCDB 131+2% v/v FCS+3 μg/ml heparin+1 µg/ml hydrocortisone, at a concentration of 1000 cells/well in 96 well plates. After a minimum of 4 hours they were dosed with the appropriate growth factor (i.e. VEGF 3 ng/ml, EGF 3 ng/ml or b-FGF 0.3 ng/ml) and compound. The cultures were then incubated for 4 days at 37° C. with 7.5% carbon dioxide. On day 4 the cultures were pulsed with 1 μCi/well of tritiated-thymidine (Amersham product TRA 61) and incubated for 4 hours. The cells were harvested using a 96-well plate harvester (Tomtek) and then assayed for incorporation of tritium with a Beta plate counter. Incorporation of radioactivity into cells, expressed as cpm, was used to measure inhibition of growth factor-stimulated cell proliferation by compounds.

The target in another experiment is T1, Flt-1 (Homo sapiens, UniProt P17948).
T1 construct: encoding most of the cytoplasmic domain, commencing with methionine 783 and including the termination codon; made in house; host or cells: Sf21 insect cells, recombinant baculovirus
T1 sequence (P17948 781-1338 limits assumed): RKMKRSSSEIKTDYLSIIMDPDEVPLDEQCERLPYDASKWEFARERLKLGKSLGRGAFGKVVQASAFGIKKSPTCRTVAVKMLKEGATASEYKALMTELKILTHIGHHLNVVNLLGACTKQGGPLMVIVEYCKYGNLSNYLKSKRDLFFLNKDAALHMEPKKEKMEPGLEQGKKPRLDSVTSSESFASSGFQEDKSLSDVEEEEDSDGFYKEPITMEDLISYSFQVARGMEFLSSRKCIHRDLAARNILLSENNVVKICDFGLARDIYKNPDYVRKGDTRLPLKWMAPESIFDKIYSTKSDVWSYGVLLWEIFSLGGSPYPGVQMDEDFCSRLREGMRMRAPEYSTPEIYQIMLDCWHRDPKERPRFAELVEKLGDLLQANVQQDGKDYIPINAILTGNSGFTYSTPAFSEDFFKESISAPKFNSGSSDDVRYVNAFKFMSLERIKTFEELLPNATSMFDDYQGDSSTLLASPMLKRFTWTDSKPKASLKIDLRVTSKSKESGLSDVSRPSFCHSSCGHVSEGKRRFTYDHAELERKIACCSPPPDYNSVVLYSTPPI
Kind of experiment: In vitro receptor tyrosine kinase inhibition test (a), Flt-1. The class given is biochemical. The following applies: read-out: IC50 in the enzyme assay (a) against Flt-1. An excerpt: (§3) This assay determines the ability of a test compound to inhibit tyrosine kinase activity. DNA encoding VEGF or epidermal growth factor (EGF) receptor cytoplasmic domains may be obtained by total gene synthesis (Edwards M, International Biotechnology Lab 5(3), 19-25, 1987) or by cloning. These may then be expressed in a suitable expression system to obtain polypeptide with tyrosine kinase activity. […] In the case of the VEGF receptor Flt (Genbank accession number X51602), a 1.7 kb DNA fragment encoding most of the cytoplasmic domain, commencing with methionine 783 and including the termination codon, described by Shibuya et al (Oncogene, 1990, 5: 519-524), was isolated from cDNA and cloned into a baculoviris transplacement vector (for example pAcYM1 (see The Baculovirus Expression System: A Laboratory Guide, L. A. King and R. D. Possee, Chapman and Hall, 1992) or pAc360 or pBlueBacHis (available from Invitrogen Corporation)). This recombinant construct was co-transfected into insect cells (for example Spodoptera frugiperda 21(Sf21)) with viral DNA (eg Pharmingen BaculoGold) to prepare recombinant baculovirus. […]

Another experiment deals with T2, KDR (Homo sapiens, UniProt P35968).
T2 construct: made in house; host or cells: insect cells (e.g. Spodoptera frugiperda Sf21), recombinant baculovirus
Kind of experiment: In vitro receptor tyrosine kinase inhibition test (a), KDR. The following applies: read-out: IC50 in the enzyme assay (a) against KDR. The class given is biochemical.
Description: as §3

The test system of experiment [2] is EGF-stimulated proliferation of human umbilical vein endothelial cells (HUVEC). Kind of experiment: In vitro HUVEC proliferation assay (b), EGF-stimulated. The class given is cell-based. Conditions: EGF 3 ng/ml, read-out: IC50 in the HUVEC assay (b) with respect to EGF. The method, then:
as §1, §2

Another experiment has as its target T3, EGFR (Homo sapiens, UniProt P00533).
T3 construct: made in house; host or cells: insect cells (e.g. Spodoptera frugiperda Sf21), recombinant baculovirus
Kind of experiment: In vitro receptor tyrosine kinase inhibition test (a), EGFR. The class given is biochemical. Conditions: read-out: IC50 in the enzyme assay (a) against EGFR.
Description: as §3

Experiment [3] deals with T4, human ether-a-go-go-related-gene (hERG)-encoded potassium channel (Homo sapiens, UniProt Q12809).
T4 construct: expressed in transfected cells; host or cells: Human embryonic kidney (HEK) cells under G418 selection
The experiment can be described thus: hERG-encoded potassium channel inhibition test (d). The class given is cell-based. Conditions: HEK cells, whole cell patch clamp, tail current. As for the experimental part:
This assay determines the ability of a test compound to inhibit the tail current flowing through the human ether-a-go-go-related-gene (hERG)-encoded potassium channel.
Human embryonic kidney (HEK) cells expressing the hERG-encoded channel were grown in Miniium Essential Medium Eagle (EMEM; Sigma-Aldrich catalogue number M2279), supplemented with 10% Foetal Calf Serum (Labtech Internation; product number 4-101-500), 10% M1 serum-free supplement (Egg Technologies; product number 70916) and 0.4 mg/ml Geneticin G418 (Sigma-Aldrich; catalogue number G7034). […]
For each cell recorded, a glass coverslp containing the cells were placed at the bottom of a Perspex chamber containging bath solution (see below) at ambient temperature (˜20° C.). […]
The cell was recorded in the whole cell configutation of the patch clamp technique. […]
The amplitude of the hERG-encoded potassium channel tail current following the step from +40 mV to −50 mV was recorded on-line by Clampex software (Axon Instruments). […]
The effect of each concentration of test compound was quantified by expressing the tail current amplitude in the presence of a given concentration of test compound as a percentage of that in the presence of vehicle.
Test compound potency (IC50) was determined by fitting the percentage inhibition values making up the concentration-effect to a four parameter Hill equation using a standard data-fitting package.
A general note: Block of hERG is tested as a sign of cardiac risk.

T4 sequence (Q12809 whole entry): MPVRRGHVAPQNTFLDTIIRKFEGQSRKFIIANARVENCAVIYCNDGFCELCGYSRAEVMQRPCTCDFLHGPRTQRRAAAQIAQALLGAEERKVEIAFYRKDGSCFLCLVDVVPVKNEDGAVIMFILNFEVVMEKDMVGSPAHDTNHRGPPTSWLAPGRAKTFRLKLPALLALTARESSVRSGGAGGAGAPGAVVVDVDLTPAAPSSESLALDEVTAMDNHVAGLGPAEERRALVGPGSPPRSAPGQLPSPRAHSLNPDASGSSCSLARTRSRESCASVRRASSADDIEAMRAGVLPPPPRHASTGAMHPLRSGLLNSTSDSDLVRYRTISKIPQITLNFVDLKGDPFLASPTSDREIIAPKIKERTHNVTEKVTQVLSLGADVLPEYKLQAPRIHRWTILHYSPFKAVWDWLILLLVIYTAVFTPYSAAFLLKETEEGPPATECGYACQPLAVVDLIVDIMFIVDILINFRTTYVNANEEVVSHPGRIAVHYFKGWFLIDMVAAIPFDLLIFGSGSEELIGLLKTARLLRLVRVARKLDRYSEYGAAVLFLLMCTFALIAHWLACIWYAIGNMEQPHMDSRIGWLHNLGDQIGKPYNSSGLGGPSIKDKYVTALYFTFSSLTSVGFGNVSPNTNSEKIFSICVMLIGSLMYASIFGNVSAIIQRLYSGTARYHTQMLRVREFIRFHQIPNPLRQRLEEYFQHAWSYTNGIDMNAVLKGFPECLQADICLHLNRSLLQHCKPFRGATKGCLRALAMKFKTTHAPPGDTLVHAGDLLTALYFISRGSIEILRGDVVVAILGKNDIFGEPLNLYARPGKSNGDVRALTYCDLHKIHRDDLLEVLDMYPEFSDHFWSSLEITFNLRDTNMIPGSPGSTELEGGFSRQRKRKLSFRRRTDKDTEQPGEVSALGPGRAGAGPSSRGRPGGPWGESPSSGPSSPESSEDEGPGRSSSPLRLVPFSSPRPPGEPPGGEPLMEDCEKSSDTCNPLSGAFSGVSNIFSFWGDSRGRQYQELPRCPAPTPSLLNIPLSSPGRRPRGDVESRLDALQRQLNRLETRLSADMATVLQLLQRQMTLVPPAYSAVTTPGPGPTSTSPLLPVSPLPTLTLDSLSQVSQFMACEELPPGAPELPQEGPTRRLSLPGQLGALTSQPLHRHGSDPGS
T2 sequence (P35968 786-1356 limits assumed): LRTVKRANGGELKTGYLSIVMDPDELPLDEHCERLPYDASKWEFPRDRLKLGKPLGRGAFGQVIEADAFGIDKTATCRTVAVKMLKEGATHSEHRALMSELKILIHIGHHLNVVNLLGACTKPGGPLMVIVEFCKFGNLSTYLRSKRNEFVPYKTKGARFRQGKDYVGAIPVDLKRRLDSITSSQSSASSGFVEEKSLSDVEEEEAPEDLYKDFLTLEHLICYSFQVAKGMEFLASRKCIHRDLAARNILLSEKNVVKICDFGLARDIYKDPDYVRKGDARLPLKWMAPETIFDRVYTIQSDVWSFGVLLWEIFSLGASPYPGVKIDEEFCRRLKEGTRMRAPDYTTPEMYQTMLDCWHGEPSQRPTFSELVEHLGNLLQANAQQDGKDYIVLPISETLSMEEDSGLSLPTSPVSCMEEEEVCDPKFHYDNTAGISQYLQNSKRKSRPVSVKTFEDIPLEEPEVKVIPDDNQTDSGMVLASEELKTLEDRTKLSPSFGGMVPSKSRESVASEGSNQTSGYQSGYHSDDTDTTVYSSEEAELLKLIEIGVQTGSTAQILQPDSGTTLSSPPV
T3 sequence (P00533 669-1210 limits assumed): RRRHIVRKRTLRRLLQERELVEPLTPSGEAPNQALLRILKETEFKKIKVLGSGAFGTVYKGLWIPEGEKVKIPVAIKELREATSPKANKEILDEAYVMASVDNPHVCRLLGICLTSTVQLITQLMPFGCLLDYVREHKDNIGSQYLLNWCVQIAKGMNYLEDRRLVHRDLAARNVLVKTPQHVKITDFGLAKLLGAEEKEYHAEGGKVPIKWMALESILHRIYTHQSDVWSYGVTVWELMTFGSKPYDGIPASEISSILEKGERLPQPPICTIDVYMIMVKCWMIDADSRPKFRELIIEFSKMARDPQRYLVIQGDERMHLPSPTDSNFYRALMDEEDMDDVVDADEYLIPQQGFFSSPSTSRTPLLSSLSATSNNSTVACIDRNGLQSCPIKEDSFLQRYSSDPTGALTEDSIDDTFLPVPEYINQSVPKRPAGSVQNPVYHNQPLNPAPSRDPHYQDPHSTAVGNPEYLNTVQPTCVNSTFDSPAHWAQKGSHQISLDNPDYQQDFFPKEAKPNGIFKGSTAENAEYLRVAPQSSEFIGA

Take `COc1cc2c(Nc3ccc(Br)cc3F)ncnc2cc1OCC1CCN(C(=O)CN(C)C)CC1` [Example 1, 4-(4-bromo-2-fluoroanilino)-7-({1-[(N,N-dimethylamino)acetyl]piperidin-4-yl}methoxy)-6-methoxyquinazoline]: the IC50 (commonly the concentration needed to halve the response being measured) in experiment [1] turned out to be 0.0114 µM; at Flt-1, 0.49 µM; on KDR, 0.029 µM; in experiment [2], 0.1 µM; at EGFR, 0.072 µM; in experiment [3] it was 1.5 µM.
